Results as given in PubChem BioAssay (NCI).
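Where inhibition never reached the appropriate level, the endpoint shown equals the highest concentration tested. Otherwise, values were interpolated linearly from a five-concentration, 48-hour dose response in 96-well plates. The concentration for 50% growth inhibition is given as GI50. At the TGI there is no net growth.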

How the values were obtained:
Assay in all cases: NCI-60 cell line screen, 48 h
SNB-75 CNS = test system: SNB-75 CNS
DU-145 prostate = test system: DU-145 prostate
OVCAR-3 ovarian = test system: OVCAR-3 ovarian
HCT-116 colon = test system: HCT-116 colon
SK-MEL-5 melanoma = test system: SK-MEL-5 melanoma
T-47D breast = test system: T-47D breast
HL-60(TB) leukemia = test system: HL-60(TB) leukemia
BT-549 breast = test system: BT-549 breast
MCF7 breast = test system: MCF7 breast
NCI/ADR-RES ovarian = test system: NCI/ADR-RES ovarian

| Compound | TGI (SNB-75 CNS) [µM] | TGI (DU-145 prostate) [µM] | TGI (OVCAR-3 ovarian) [µM] | TGI (HCT-116 colon) [µM] | TGI (SK-MEL-5 melanoma) [µM] | TGI (T-47D breast) [µM] | TGI (HL-60(TB) leukemia) [µM] | TGI (BT-549 breast) [µM] | TGI (MCF7 breast) [µM] | TGI (NCI/ADR-RES ovarian) [µM] | GI50 (DU-145 prostate) [µM] | GI50 (HCT-116 colon) [µM] |
| --- | --- | --- | --- | --- | --- | --- | --- | --- | --- | --- | --- | --- |
| CC(=O)O[C@H]1CCc2c(cc(N)c3c2C(=O)C[C@]2(C)C([C@H](C)CCCC(C)C)CCC32C)C1(C)C (some centres not stated) | > 100 | > 100 | > 100 | > 100 | > 100 | > 100 | > 100 | > 100 | > 100 | > 100 | – | – |
| Cc1ccc(/C=C2\Cc3c(C)cc(C)cc3C2=O)c(C(=O)O)c1 | > 100 | > 100 | 94 | > 100 | 85.2 | > 100 | 65.5 | > 100 | > 100 | > 100 | – | – |
| CC(C(=O)O)C(C)(O)C(=O)O (configuration not stated) | > 100 | > 100 | > 100 | > 100 | > 100 | > 100 | > 100 | > 100 | > 100 | > 100 | – | – |
| CNC(=O)CCCNC(=O)CCCC(=O)N(C)C | > 100 | > 100 | > 100 | > 100 | > 100 | > 100 | > 100 | > 100 | > 100 | > 100 | – | – |
| COC(=O)C1=Nc2c(C)nn(-c3ccccc3)c2N=C(c2ccccc2)C1 | > 10 | > 10 | > 10 | > 10 | > 10 | > 10 | > 10 | > 10 | > 10 | > 10 | – | – |
| CC12CCCC3(CC(=O)C(C)(C)C3C(=O)C1)C2 (configuration not stated) | > 100 | > 100 | > 100 | > 100 | > 100 | > 100 | > 100 | > 100 | > 100 | > 100 | – | – |
| C#CCN(Cc1ccc2nc(OC)c(OC)nc2c1)c1cc(OC)c(OC)c(OC)c1 | > 100 | > 74.5 | > 100 | > 68.8 | 23.1 | > 100 | 43.5 | > 72.4 | > 66 | 53.7 | – | – |
| O=C1CSC2=NC3=C(COC/C3=C\c3ccc(Br)cc3)C(c3ccc(Br)cc3)N12 (configuration not stated) | > 100 | > 100 | > 100 | > 100 | > 100 | > 100 | 36.9 | > 100 | > 100 | > 100 | – | – |
| COc1ccc(COCC[C@H](C)OC2OC(CO[Si](C)(C)C(C)(C)C)C(OC(=O)CCCN=[N+]=[N-])C(OC(=O)CCCN=[N+]=[N-])C2OC(=O)CCCN=[N+]=[N-])cc1 (some centres not stated) | 59.9 | > 100 | > 100 | > 100 | 25.4 | > 100 | 41.5 | 68.9 | > 100 | 60.9 | – | – |
| COc1cc2ccc1OCc1cccc(n1)COc1ccc(cc1OC)C=Nc1ccc(cc1)N=C2 | > 100 | > 100 | > 100 | > 100 | > 100 | > 100 | > 100 | > 100 | > 100 | > 100 | – | – |
| C=C1C(O)CC[C@]2(C)C1C1OC(C)(C)O[C@]13CC(=O)C(C)=C([C@H]1OC(C)(C)OC12)C3(C)C (some centres not stated) | > 100 | > 100 | > 100 | > 100 | > 100 | > 100 | > 100 | > 100 | > 100 | > 100 | – | – |
| C[C@]12CC[C@@H]3c4cc(I)c(O)cc4CC[C@H]3[C@@H]1CC[C@@H]2O | 12.4 | 23.8 | 11.9 | 16.5 | 12.2 | 37.4 | > 33.4 | 25.1 | 21.1 | > 78.2 | 6.9 | 5.01 |
| CCCCn1c(-c2ccc([N+](=O)[O-])cc2)cs/c1=N/N=C1\C(=O)Nc2ccc(Br)cc21 | 59.8 | 30 | 39.8 | 29.3 | 27.8 | 35.1 | 85.9 | 51.6 | 17.7 | 37.4 | – | – |
| O=c1[nH]c(Nc2cccc(CO)c2)nc2nc[nH]c12 | > 100 | > 100 | > 100 | > 100 | > 100 | > 100 | > 100 | > 100 | > 100 | > 100 | – | – |
| COc1nc(C#CC(C)(C)C)nc(OC)n1 | > 100 | 68.3 | 77.3 | > 100 | 39 | > 100 | > 100 | > 100 | 89.5 | 46.1 | – | – |
| [O-]/[N+](=C\c1ccccc1OC(=S)S)c1ccc(Cl)cc1 | > 100 | > 100 | > 100 | 72.7 | > 100 | 88.2 | 45 | > 100 | 64.8 | > 100 | – | – |
| CC(=O)c1ccc2c(c1)CC1(C2)Cc2ccccc2C1=O (configuration not stated) | > 100 | > 100 | > 100 | > 100 | 65.3 | > 100 | 70 | > 100 | > 100 | 75.6 | – | – |
